How the values were obtained:
[1] = tested on: ATXN3 pre-mRNA; assay: RT-qPCR Assay to Quantify Exon 4 Skipping in ATXN3 pre-mRNA in Cells; format: cell-based; conditions: percent exon 4 skipping in ATXN3 pre-mRNA, RT-qPCR of cell lysates; average IC50
How it was run: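 IC50 derives from a dose-response fit of percent exon 4 skipping, quantified by RT-qPCR on crude lysates. Compounds tested as 7-point 3.16-fold dilutions in duplicate; cells (10,000/well) were exposed for 24 h at 37 °C before lysis.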

[2] = tested on: Total ATXN3 (tATXN3) protein; assay: Endogenous Total ATXN3 (tATXN3) Protein Assay (MSD immunoassay of cell lysates); format: cell-based; conditions: average IC50, total ATXN3 protein in cell lysate after 48 h with compound (Table 1)
How it was run: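 By electrochemiluminescent MSD sandwich immunoassay (mouse monoclonal capture, rabbit monoclonal and SULFO-TAG anti-rabbit detection), endogenous ATXN3 was quantified in lysates of cells treated 48 h at 37° C at 10,000 cells/well. Treatment used a 7-point 3.16-fold duplicate dilution series, with average IC50 grouped into star categories.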

Row | IC50 [1] [nM] | IC50 [2] [nM] | Molecule
1 | 300 to 1000 | 300 to 1000 | C[C@@H]1C=C[C@H](C)[C@H](N)[C@H]1c1sc2c(NCc3ccco3)cc(Cl)nc2c1Cl [Compound 450, 2-((1S,2R,5S,6S)-6-amino-2,5-dimethylcyclohex-3-en-1-yl)-3,5-dichloro-N-(furan-2-ylmethyl)thieno[3,2-b]pyridin-7-amine]
2 | 30 to 300 | 30 to 300 | CN(Cc1cccs1)c1cc(Cl)nc2c(C#CCCCO)c([C@@H]3CC=CC[C@H]3N)sc12 [Compound 451, 5-(2-((1R,6R)-6-aminocyclohex-3-en-1-yl)-5-chloro-7-(methyl(thiophen-2-ylmethyl)amino)thieno[3,2-b]pyridin-3-yl)pent-4-yn-1-ol]
3 | 30 to 300 | 30 to 300 | CN(Cc1ccco1)c1cc(Cl)nc2c(C#CCCCO)c([C@@H]3CC=CC[C@H]3N)sc12 [Compound 452, 5-(2-((1R,6R)-6-aminocyclohex-3-en-1-yl)-5-chloro-7-((furan-2-ylmethyl)(methyl)amino)thieno[3,2-b]pyridin-3-yl)pent-4-yn-1-ol]
4 | 300 to 1000 | 300 to 1000 | CN(Cc1ccccc1)c1cc(Cl)nc2c(C#CCCCO)c([C@H]3CC=CC[C@@H]3N)sc12 [Compound 453, 5-(2-((1S,6S)-6-aminocyclohex-3-en-1-yl)-7-(benzyl(methyl)amino)-5-chlorothieno[3,2-b]pyridin-3-yl)pent-4-yn-1-ol]

More lines, now with the values behind:

Row | Molecule | IC50 [1] [nM] | IC50 [2] [nM]
5 | [2H]C1=C([2H])C([2H])([2H])[C@@H](c2sc3c(NCc4ccco4)nc(Cl)nc3c2C)[C@H](N)C1([2H])[2H] [Compound 449, 6-((1R,6R)-6-aminocyclohex-3-en-1-yl-2,2,3,4,5,5-d6)-2-chloro-N-(furan-2-ylmethyl)-7-methylthieno[3,2-d]pyrimidin-4-amine] | 300 to 1000 | 30 to 300
6 | (1R,2R,3S)-2-amino-3-(3-bromo-5-chloro-7-((thiophen-2-ylmethyl)amino)thieno[3,2-b]pyridin-2-yl)cyclohexan-1-ol and (1S,2S,3R)-2-amino-3-(3-bromo-5-chloro-7-((thiophen-2-ylmethyl)amino)thieno[3,2-b]pyridin-2-yl)cyclohexan-1-ol [Compound 228] | ≤ 30 | ≤ 30
7 | (1R,2S,3R)-2-amino-3-(5-chloro-3-methyl-7-((thiophen-2-ylmethyl)amino)thieno[3,2-b]pyridin-2-yl)cyclohexan-1-ol and (1S,2R,3S)-2-amino-3-(5-chloro-3-methyl-7-((thiophen-2-ylmethyl)amino)thieno[3,2-b]pyridin-2-yl)cyclohexan-1-ol [Compound 374] | 30 to 300 | 30 to 300
8 | (1R,5R,6S)-5-amino-6-(3-bromo-5-chloro-7-((thiophen-2-ylmethyl)amino)thieno[3,2-b]pyridin-2-yl)cyclohex-2-en-1-ol and (1S,5S,6R)-5-amino-6-(3-bromo-5-chloro-7-((thiophen-2-ylmethyl)amino)thieno[3,2-b]pyridin-2-yl)cyclohex-2-en-1-ol [Compound 329] | 30 to 300 | 30 to 300
9 | (1R,5S,6R)-6-amino-5-(3-bromo-5-chloro-7-((thiophen-2-ylmethyl)amino)thieno[3,2-b]pyridin-2-yl)cyclohex-2-en-1-ol and (1S,5R,6S)-6-amino-5-(3-bromo-5-chloro-7-((thiophen-2-ylmethyl)amino)thieno[3,2-b]pyridin-2-yl)cyclohex-2-en-1-ol [Compound 153] | ≤ 30 | ≤ 30
10 | (2-((1S,2S)-2-aminocyclohexyl)-5-chloro-7-((thiophen-2-ylmethyl)amino)thieno[3,2-b]pyridin-3-yl)methanol and (2-((1R,2R)-2-aminocyclohexyl)-5-chloro-7-((thiophen-2-ylmethyl)amino)thieno[3,2-b]pyridin-3-yl)methanol [Compound 360] | 30 to 300 | 30 to 300
11 | (2R,3S)-2-amino-3-(3-bromo-5-chloro-7-((thiophen-2-ylmethyl)amino)thieno[3,2-b]pyridin-2-yl)cyclohexan-1-one and (2S,3R)-2-amino-3-(3-bromo-5-chloro-7-((thiophen-2-ylmethyl)amino)thieno[3,2-b]pyridin-2-yl)cyclohexan-1-one [Compound 192] | ≤ 30 | ≤ 30

Source: US20250382305A1 (PTC THERAPEUTICS, INC., priority 2022, published 2025)
